Source: patent publication US6737383B1, “Herbicidal oxadiazolidines” (priority 1999, dated 2004)

Test system: crabgrass
Experiment: Test A crabgrass
Type: in vivo, Digitaria spp.
Conditions: 0 to 10 scale where 0 is no effect and 10 is complete control
Method in brief: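 Visual injury score, 0 (no effect) to 10 (complete control), vs untreated controls at ~11 d in greenhouse. Pre: soil drench on sandy loam. Post: spray to runoff, 1–2 leaf stage.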

Compound | Plant response rating, Crabgrass (Postemergence, Rate 1000 g/ha) | Plant response rating, Crabgrass (Pre-emergence, Rate 2000 g/ha)
Cc1ccccc1-n1c(=O)on(C(=O)N(C2=CCOCC2)C(C)C)c1=O [Compound 10] | 8 | 9
CC(C)Oc1cc(-n2c(=O)on(C(=O)N(c3ccc(F)cc3)C(C)C)c2=O)c(Cl)cc1Cl [Compound 43] | 0 | 1
CC(C)N(C(=O)n1oc(=O)n(C2CCCCC2C(F)(F)F)c1=O)c1ccc(F)cc1 (stereo not drawn) [Compound 99] | 7 | 10
